Data published in patent US8178058B2, “High throughput cell-based assays, methods of use and kits” (EMD Millipore Corporation, priority 2007, dated 2012).

System: activated caspases
Assay: Cell based apoptosis assay (FLICA FAM-VAD-FMK staining, gravity washing, flow cytometry)
Conditions: cells treated 2 hours at 37° C with 10, 0.63, 0.06 microMolar Staurosporine vs non-induced control
Experimental: Cell based apoptosis assay was performed using gravity based filtration.
Cells were treated with increasing concentration of well-known apoptosis inducer (Staurosporine) for 2 hours at 37° C. After induction, cells were treated with FLICA. Unbound FLICAs were removed from the nonapoptotic cells by gravity washing the cells with wash buffer 4 times. After gravity washing cells labeled with FLICAs (FAM-VAD-FMK, pan-caspases FLICA) was examined by flow cytometry.
Shown in FIGS. 10A and B are flow cytometric histograms of FAM-VAD-FMK stained cells from induced (10, 0.63, 0.06 microMolar of Staurosporine) and non-induced control samples.
Notice the dose response.

Q: With `CN[C@@H]1C[C@H]2O[C@@](C)([C@@H]1OC)n1c3ccccc3c3c4c(c5c6ccccc6n2c5c31)C(=O)NC4` [Staurosporine] as the compound, how does the “apoptotic cell population (FAM-VAD-FMK percent positive population)” value read?
A: Increase in apoptotic cell population
